The target in one test is Cytochrome P450 2C9 (Homo sapiens, UniProt P11712).
Cytochrome P450 2C9, sequence (P11712 whole entry): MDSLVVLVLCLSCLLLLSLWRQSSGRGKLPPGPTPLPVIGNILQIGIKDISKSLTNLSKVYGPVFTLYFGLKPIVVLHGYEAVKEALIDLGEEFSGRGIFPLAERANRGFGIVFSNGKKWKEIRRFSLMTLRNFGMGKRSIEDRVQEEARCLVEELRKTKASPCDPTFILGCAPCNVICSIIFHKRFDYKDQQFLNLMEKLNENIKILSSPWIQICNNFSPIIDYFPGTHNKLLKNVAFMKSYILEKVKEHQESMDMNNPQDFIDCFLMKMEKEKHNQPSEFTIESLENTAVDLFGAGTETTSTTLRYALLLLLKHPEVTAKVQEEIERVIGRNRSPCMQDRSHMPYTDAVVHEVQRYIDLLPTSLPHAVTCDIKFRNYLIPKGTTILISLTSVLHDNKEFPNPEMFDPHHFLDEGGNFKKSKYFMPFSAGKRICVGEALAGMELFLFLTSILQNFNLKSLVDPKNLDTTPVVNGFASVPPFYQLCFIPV
Assay: not given
Settings: not given
Molecule `COc1ccccc1C(=O)N1CCC(Cc2ccccc2)CC1` came in with an IC50 of 2000 nM.
The same measure, in the same setting: for `Cc1ccccc1C(=O)N1CCC(Cc2ccccc2)CC1` the value was 1000 nM; for `CCOC(=O)C1=C(C)NC(C)=C(C(=O)OC)C1c1cccc([N+](=O)[O-])c1` (centres undefined) [NITRENDIPINE], 300 nM.

For another test, the target named is Cytochrome P450 2C19 (Homo sapiens, UniProt P33261).
Cytochrome P450 2C19, sequence (P33261 whole entry): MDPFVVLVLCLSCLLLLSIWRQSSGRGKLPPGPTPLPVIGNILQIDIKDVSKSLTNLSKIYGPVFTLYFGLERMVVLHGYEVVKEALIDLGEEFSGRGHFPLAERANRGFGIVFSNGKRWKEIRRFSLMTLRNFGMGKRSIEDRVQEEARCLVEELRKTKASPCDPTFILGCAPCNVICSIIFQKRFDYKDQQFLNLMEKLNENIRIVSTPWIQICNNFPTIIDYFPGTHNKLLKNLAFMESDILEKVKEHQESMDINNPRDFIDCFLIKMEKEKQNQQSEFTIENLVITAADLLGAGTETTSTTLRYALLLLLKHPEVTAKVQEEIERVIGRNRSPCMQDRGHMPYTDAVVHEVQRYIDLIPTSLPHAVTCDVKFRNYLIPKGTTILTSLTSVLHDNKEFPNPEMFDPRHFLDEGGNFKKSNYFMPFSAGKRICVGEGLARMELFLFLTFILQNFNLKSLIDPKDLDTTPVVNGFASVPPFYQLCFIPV
Assay: not given
Settings: not given
On to `COc1ccccc1C(=O)N1CCC(Cc2ccccc2)CC1`, for which inhibition was half-maximal at 800 nM (IC50).
Still for that read-out and setting: the result for `Cc1ccccc1C(=O)N1CCC(Cc2ccccc2)CC1` reads 600 nM.
Molecule `C[C@](O)(CS(=O)(=O)c1ccc(F)cc1)C(=O)Nc1ccc(C#N)c(C(F)(F)F)c1` [(R)-BICALUTAMIDE] displayed an IC50 of 1000 nM.
Turning to `CCOC(=O)C1=C(C)NC(C)=C(C(=O)OC)C1c1cccc([N+](=O)[O-])c1` (centres undefined) [NITRENDIPINE], the midpoint of inhibition, the IC50, lay at 3000 nM.
For the molecule `C#C[C@]1(OC(C)=O)CC[C@H]2[C@@H]3CCC4=CC(=O)CC[C@@H]4[C@H]3CC[C@@]21C` [NORETHINDRONE ACETATE], 800 nM corresponded to half-maximal inhibition (IC50).

For a further test, the target named is T1, Estrogen receptor (Homo sapiens, UniProt P03372).
T1 sequence (P03372 whole entry): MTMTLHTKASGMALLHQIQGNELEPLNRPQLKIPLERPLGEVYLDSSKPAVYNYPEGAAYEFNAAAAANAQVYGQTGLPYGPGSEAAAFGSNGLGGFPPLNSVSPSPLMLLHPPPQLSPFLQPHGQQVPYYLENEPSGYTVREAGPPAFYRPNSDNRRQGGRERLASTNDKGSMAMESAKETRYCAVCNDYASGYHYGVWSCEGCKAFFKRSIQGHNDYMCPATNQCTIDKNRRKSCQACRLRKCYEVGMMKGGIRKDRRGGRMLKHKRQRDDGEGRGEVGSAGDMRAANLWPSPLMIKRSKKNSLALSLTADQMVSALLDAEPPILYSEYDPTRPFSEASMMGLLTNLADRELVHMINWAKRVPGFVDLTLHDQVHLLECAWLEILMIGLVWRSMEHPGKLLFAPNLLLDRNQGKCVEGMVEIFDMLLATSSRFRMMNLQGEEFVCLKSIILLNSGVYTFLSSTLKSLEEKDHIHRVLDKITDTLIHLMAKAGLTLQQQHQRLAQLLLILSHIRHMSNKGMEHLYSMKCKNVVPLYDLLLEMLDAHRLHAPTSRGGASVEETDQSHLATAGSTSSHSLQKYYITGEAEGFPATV
Kind of test: biochemical.
Settings: not given
Molecule `C[C@]12CC[C@@H]3c4ccc(OC(=O)c5ccccc5)cc4CC[C@H]3[C@@H]1CC[C@@H]2O` [ESTRADIOL BENZOATE] registered an IC50 of 65 nM and a Ki of 18 nM.
For `C#C[C@]1(O)CC[C@H]2[C@@H]3CCc4cc(OC)ccc4[C@H]3CC[C@@]21C` [MESTRANOL] the same measures were 18 nM and 5.22 nM.

In another test the target is Cytochrome P450 2D6 (Homo sapiens, UniProt P10635).
Cytochrome P450 2D6, sequence (P10635 whole entry): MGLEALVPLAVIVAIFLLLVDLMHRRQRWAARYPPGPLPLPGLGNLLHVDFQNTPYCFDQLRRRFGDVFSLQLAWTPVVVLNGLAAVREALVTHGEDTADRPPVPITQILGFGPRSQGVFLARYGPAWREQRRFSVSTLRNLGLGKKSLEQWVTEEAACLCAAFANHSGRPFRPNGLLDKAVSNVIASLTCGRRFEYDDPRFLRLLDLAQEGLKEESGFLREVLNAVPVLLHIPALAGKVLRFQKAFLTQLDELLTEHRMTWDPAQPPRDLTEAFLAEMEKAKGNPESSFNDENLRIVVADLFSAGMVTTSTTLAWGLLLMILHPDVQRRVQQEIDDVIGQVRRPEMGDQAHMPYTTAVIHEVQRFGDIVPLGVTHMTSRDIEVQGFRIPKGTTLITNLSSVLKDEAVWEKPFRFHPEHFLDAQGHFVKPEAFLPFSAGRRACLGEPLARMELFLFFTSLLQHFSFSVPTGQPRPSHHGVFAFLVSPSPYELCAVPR
Assay: not given
Settings: not given
In turn, `CCCCN1CCCCC1C(=O)Nc1c(C)cccc1C.Cl` (centres undefined) [BUPIVACAINE HYDROCHLORIDE] had an IC50 of 400 nM.
In turn, `CN(C)c1ccc(C(=C2C=CC(=[N+](C)C)C=C2)c2ccc(N(C)C)cc2)cc1.[Cl-]` [GENTIAN VIOLET] showed an IC50 of 824 nM. This IC50 lies about 2.1-fold higher than the previous one.

Another test addresses T2, Androgen receptor (Rattus norvegicus, UniProt P15207).
T2 sequence (P15207 whole entry): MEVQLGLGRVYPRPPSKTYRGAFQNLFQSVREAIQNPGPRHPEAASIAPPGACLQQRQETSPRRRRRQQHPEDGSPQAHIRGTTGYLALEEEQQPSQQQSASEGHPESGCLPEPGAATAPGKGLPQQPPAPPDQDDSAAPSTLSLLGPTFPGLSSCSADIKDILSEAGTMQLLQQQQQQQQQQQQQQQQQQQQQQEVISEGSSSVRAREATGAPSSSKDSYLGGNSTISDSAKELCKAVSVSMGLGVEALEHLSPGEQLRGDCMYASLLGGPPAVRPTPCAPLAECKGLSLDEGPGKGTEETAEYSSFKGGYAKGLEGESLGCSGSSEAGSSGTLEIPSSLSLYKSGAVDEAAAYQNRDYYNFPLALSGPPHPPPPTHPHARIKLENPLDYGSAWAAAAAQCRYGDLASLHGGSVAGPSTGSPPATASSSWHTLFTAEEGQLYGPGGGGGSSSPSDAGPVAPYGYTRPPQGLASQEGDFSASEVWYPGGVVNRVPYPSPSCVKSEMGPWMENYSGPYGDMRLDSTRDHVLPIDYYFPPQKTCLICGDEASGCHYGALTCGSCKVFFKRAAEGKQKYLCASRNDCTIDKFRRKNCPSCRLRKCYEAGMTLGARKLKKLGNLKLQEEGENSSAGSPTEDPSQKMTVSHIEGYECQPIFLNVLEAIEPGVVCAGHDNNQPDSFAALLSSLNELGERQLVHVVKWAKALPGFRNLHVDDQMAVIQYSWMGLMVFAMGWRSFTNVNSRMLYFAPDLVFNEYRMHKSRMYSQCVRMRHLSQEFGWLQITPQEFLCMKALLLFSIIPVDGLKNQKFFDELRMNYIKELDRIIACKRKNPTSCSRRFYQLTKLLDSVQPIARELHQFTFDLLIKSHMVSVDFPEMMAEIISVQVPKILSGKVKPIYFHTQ
Assay: not given
Settings: not given
`S=C=Nc1cccc2ccccc12` [1-NAPHTHYLISOTHIOCYANATE] had an IC50 of 25500 nM and a Ki of 17000 nM.
The matching figures for `C[C@]12CC[C@@H]3c4ccc(OC(=O)c5ccccc5)cc4CC[C@H]3[C@@H]1CC[C@@H]2O` [ESTRADIOL BENZOATE]: 10 nM and 6.98 nM.
The matching figures for `CN(C)c1ccc(C(=C2C=CC(=[N+](C)C)C=C2)c2ccc(N(C)C)cc2)cc1.[Cl-]` [GENTIAN VIOLET]: 5570 nM and 3710 nM.

The target of another test is T3, Glucocorticoid receptor (Homo sapiens, UniProt P04150).
T3 sequence (P04150 whole entry): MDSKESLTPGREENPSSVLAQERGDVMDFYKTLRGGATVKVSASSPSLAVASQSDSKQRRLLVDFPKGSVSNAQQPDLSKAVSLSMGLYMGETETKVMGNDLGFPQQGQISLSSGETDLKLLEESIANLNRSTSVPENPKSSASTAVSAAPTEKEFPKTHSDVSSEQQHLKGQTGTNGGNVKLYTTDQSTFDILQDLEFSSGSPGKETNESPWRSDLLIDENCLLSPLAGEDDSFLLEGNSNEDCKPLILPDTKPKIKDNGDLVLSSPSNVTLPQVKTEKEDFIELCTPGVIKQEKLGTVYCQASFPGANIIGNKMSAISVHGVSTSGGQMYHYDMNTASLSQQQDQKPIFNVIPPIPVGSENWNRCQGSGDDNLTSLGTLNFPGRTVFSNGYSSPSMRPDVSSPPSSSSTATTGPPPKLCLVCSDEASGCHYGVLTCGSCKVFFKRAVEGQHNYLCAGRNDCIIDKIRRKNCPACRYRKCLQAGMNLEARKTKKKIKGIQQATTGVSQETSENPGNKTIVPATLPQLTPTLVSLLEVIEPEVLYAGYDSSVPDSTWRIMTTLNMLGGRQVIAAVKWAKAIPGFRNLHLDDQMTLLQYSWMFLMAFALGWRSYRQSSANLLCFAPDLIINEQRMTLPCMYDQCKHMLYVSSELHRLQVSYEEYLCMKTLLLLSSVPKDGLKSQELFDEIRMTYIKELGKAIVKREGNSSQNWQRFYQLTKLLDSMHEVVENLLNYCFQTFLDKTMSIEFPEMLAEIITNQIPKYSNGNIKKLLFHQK
Assay: not given
The settings on record: hela s3.
On to `COc1ccccc1C(=O)N1CCC(Cc2ccccc2)CC1`, for which the IC50 result is “Not Active”.
The same measure, in the same setting: the result for `Cc1ccccc1C(=O)N1CCC(Cc2ccccc2)CC1` reads “Not Active”; that for `C[C@](O)(CS(=O)(=O)c1ccc(F)cc1)C(=O)Nc1ccc(C#N)c(C(F)(F)F)c1` [(R)-BICALUTAMIDE], “Not Active”; that for `CN(C)c1ccc(C(=C2C=CC(=[N+](C)C)C=C2)c2ccc(N(C)C)cc2)cc1.[Cl-]` [GENTIAN VIOLET], “Not Active”.
On the same count and under the same terms, for `C#C[C@]1(O)CC[C@H]2[C@@H]3CCc4cc(OC)ccc4[C@H]3CC[C@@]21C` [MESTRANOL] the value was “Not Active”.

The next test addresses T3, Glucocorticoid receptor. In words: biochemical.
Settings: not given
Regarding `S=C=Nc1cccc2ccccc12` [1-NAPHTHYLISOTHIOCYANATE], the midpoint of inhibition, the IC50, lay at 15400 nM and the Ki came out at 7000 nM.
The matching figures for `C[C@]12CC[C@@H]3c4ccc(OC(=O)c5ccccc5)cc4CC[C@H]3[C@@H]1CC[C@@H]2O` [ESTRADIOL BENZOATE]: 5070 nM and 2310 nM.
Consider `C#C[C@]1(OC(C)=O)CC[C@H]2[C@@H]3CCC4=CC(=O)CC[C@@H]4[C@H]3CC[C@@]21C` [NORETHINDRONE ACETATE], for which the IC50 came out at 646 nM and the Ki turned out to be 293 nM.

For another test, the target named is T2, Androgen receptor.
Assay: not given
Settings: not given
The source holds these as a separate data set.
For the molecule `COc1ccccc1C(=O)N1CCC(Cc2ccccc2)CC1`, the IC50 entry is “Not Active”.
On the same count and under the same terms, the result for `Cc1ccccc1C(=O)N1CCC(Cc2ccccc2)CC1` reads “Not Active”; that for `CCCCN1CCCCC1C(=O)Nc1c(C)cccc1C.Cl` (centres undefined) [BUPIVACAINE HYDROCHLORIDE], “Not Active”.

Source of the values: ChEMBL document CHEMBL1909046, “DrugMatrix in vitro pharmacology data”.
Further: in other assays of this panel Not Active means under 50% inhibition at 10 µM.
